# Key:
# Type in all cases: functional
# [1] = tested on: Staphylococcus aureus; assay: Antibacterial activity against methicillin-resistant Staphylococcus aureus Col
# [2] = tested on: Staphylococcus aureus; assay: Antibacterial activity against methicillin-resistant Staphylococcus aureus Col-LysoR
# [3] = tested on: Staphylococcus aureus; assay: Antibacterial activity against methicillin-resistant Staphylococcus aureus MBT 5040
# [4] = tested on: Staphylococcus aureus; assay: Antibacterial activity against methicillin-resistant Staphylococcus aureus MBT 5040-LysoR
# [5] = tested on: Staphylococcus aureus; assay: Antibacterial activity against methicillin-resistant Staphylococcus aureus Col and Staphylococcus aureus Col-LysoR co-infected in CF1 mouse assessed as kidney infection after 7 days
# [6] = tested on: Staphylococcus aureus; assay: Antibacterial activity against methicillin-resistant Staphylococcus aureus Col in CF1 mouse assessed as kidney infection after 7 days
# [7] = tested on: Staphylococcus aureus; assay: Antibacterial activity against methicillin-resistant Staphylococcus aureus MBT 5040 in CF1 mouse assessed as kidney infection after 7 days
# [8] = tested on: Staphylococcus aureus; assay: Antibacterial activity against methicillin-resistant Staphylococcus aureus MBT 5040 and Staphylococcus aureus MBT 5040-LysoR co-infected in CF1 mouse assessed as kidney infection after 7 days
SMILES,MIC [1] [µg/mL],MIC [2] [µg/mL],MIC [3] [µg/mL],MIC [4] [µg/mL],CFU [5],CFU [6],CFU [7],CFU [8]
Cc1onc(-c2ccccc2)c1C(=O)N[C@@H]1C(=O)N2[C@@H]1SC(C)(C)[C@@H]2C(=O)[O-].[Na+],> 32,0.25,> 32,0.25,,,,
CCOc1ccc2ccccc2c1C(=O)N[C@@H]1C(=O)N2[C@@H]1SC(C)(C)[C@@H]2C(=O)O [NAFCILLIN],,,,,10780,9960,5630,9520
